# Source: the supplement of paper PMC11061612
# How the values were obtained:
# Test in all cases: combination Emax (second highest fraction inhibited in the dose matrix, 72 h); higher = more inhibition; extreme values may be limits of the assay
# [1] = test system: SK-ES-1 (Ewing's Sarcoma)
# Method in brief: (§1)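 Bliss excess equals the observed combination effect minus the expected value EA + EB − EA·EB, where EA and EB are the effects of each agent alone. Combination Emax is the second-highest inhibition within the matrix. Inhibition was scaled from CellTiter-Glo 2.0 luminescence, with 0 set by vehicle wells and 1 by blank wells, after 72 hours of two-drug dosing of cells plated in 1536-well plates.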
# [2] = test system: TCCSUP (Bladder Carcinoma)
# Method in brief: as §1
# [3] = test system: RC-K8 (B-Cell Non-Hodgkin's Lymphoma)
# Method in brief: as §1
# [4] = test system: Daoy (Other Solid Carcinomas)
# Method in brief: as §1
# [5] = test system: TE-9 (Esophageal Squamous Cell Carcinoma)
# Method in brief: as §1
# [6] = test system: DEL (T-Cell Non-Hodgkin's Lymphoma)
# Method in brief: as §1
# [7] = test system: RO82-W-1 (Thyroid Gland Carcinoma)
# Method in brief: as §1
# [8] = test system: NOS-1 (Osteosarcoma)
# Method in brief: as §1
# [9] = test system: COLO-205 (Colorectal Carcinoma)
# Method in brief: as §1
# [10] = test system: CAL-148 (Breast Carcinoma)
# Method in brief: as §1
# [11] = test system: NCI-H82 (Small Cell Lung Carcinoma)
# Method in brief: as §1
# [12] = test system: HCC1806 (Breast Carcinoma)
# Method in brief: as §1
# [13] = test system: SNU-5 (Gastric Carcinoma)
# Method in brief: as §1
# [14] = test system: Ramos-2G6-4C10 (Burkitt's Lymphoma)
# Method in brief: as §1
# [15] = test system: CaR-1 (Colorectal Carcinoma)
# Method in brief: as §1
# [16] = test system: ES4 (Ewing's Sarcoma)
# Method in brief: as §1
# [17] = test system: B-CPAP (Thyroid Gland Carcinoma)
# Method in brief: as §1
# [18] = test system: UM-UC-3 (Bladder Carcinoma)
# Method in brief: as §1
# [19] = test system: T98G (Glioblastoma)
# Method in brief: as §1
# [20] = test system: KURAMOCHI (Ovarian Carcinoma)
# Method in brief: as §1
Compound,combination Emax [1],combination Emax [2],combination Emax [3],combination Emax [4],combination Emax [5],combination Emax [6],combination Emax [7],combination Emax [8],combination Emax [9],combination Emax [10],combination Emax [11],combination Emax [12],combination Emax [13],combination Emax [14],combination Emax [15],combination Emax [16],combination Emax [17],combination Emax [18],combination Emax [19],combination Emax [20]
"CC1(C)CCC(CN2CCN(c3ccc(C(=O)NS(=O)(=O)c4ccc(NCC5CCOCC5)c([N+](=O)[O-])c4)c(Oc4cnc5[nH]ccc5c4)c3)CC2)=C(c2ccc(Cl)cc2)C1 [Venetoclax] + CCN(CCO)CCCOc1ccc2c(Nc3cc(CC(=O)Nc4cccc(F)c4)[nH]n3)ncnc2c1 [AZD2811] (first compound max 1 µM, 7x7, partner max 1 µM)",1,0.311,0.423,0.439,0.154,0.754,0.141,0.255,0.713,0.933,0.457,0.212,0.151,0.269,0.282,0.164,0.206,0.16,0.394,0.471
"Cc1c2c(nn1C)CSCc1cc(n(C)n1)CSc1cc(c3ccccc3c1)OCCCc1c(C(=O)O)n(C)c3c-2c(Cl)ccc13 [AZD5991] + C[C@@H]1COCCN1C2=NC(=NC(=C2)C3(CC3)[S@](=N)(=O)C)C4=C5C=CNC5=NC=C4 [AZD6738] (first compound max 1 µM, 7x7, partner max 10 µM)",1,0.648,0.781,0.945,0.366,1,0.525,1,0.511,0.942,0.99,0.961,0.942,1,0.362,0.885,0.522,0.401,0.875,0.634
"Cc1c2c(nn1C)CSCc1cc(n(C)n1)CSc1cc(c3ccccc3c1)OCCCc1c(C(=O)O)n(C)c3c-2c(Cl)ccc13 [AZD5991] + Cc1cc2ncnn2cc1Nc1ncc2c(n1)n(C1CCOCC1)c(=O)n2C [AZD7648] (first compound max 1 µM, 7x7, partner max 10 µM)",0.813,0.25,0.425,0.244,0.214,1,0.376,0.895,0.298,0.45,0.927,0.515,0.347,1,0.277,0.229,0.365,0.226,0.361,0.331
"CS(=O)(=O)CCNCc1ccc(-c2ccc3ncnc(Nc4ccc(OCc5cccc(F)c5)c(Cl)c4)c3c2)o1 [Lapatinib] + C[C@@H](Oc1cc(-c2cnn(C3CCNCC3)c2)cnc1N)c1c(Cl)ccc(F)c1Cl [Crizotinib] (first compound max 10 µM, 7x7, partner max 10 µM)",0.938,0.508,0.622,0.934,0.552,1,0.203,0.985,0.939,0.771,0.936,0.95,0.927,0.898,0.858,0.928,0.984,0.307,0.949,0.721
"COc1nnc2ccc(N3CCC(c4ccc(OCCN5CCN(C)C(=O)[C@H]5C)cc4)CC3)nn12 [AZD5153] + C[C@@H]1COCCN1C2=NC(=NC(=C2)C3(CC3)[S@](=N)(=O)C)C4=C5C=CNC5=NC=C4 [AZD6738] (first compound max 1 µM, 7x7, partner max 10 µM)",0.929,0.566,0.896,0.835,0.271,1,0.398,0.887,0.83,0.912,0.878,0.919,0.913,0.913,0.518,0.942,0.72,0.621,0.798,0.826
"Cn1cnc2c(F)c(Nc3ccc(Br)cc3Cl)c(C(=O)NOCCO)cc21 [Selumetinib] + CC(C)n1c(=O)n(C)c2cnc3cc(F)c(-c4ccc(OCCCN5CCCCC5)nc4)cc3c21 [AZD1390] (first compound max 10 µM, 7x7, partner max 0.3 µM)",0.19,0.109,0.209,0.126,0.13,0.237,0.125,0.257,0.705,0.158,0.177,0.299,0.54,0.137,0.188,0.0668,0.254,0.187,0.191,0.194
"CN(CCO)CC[C@H](CSc1ccccc1)Nc1ccc(S(=O)(=O)NC(=O)c2ccc(N3CCC([C@@H](O)c4ccccc4-c4ccc(Cl)cc4)CC3)cc2)cc1S(=O)(=O)C(F)(F)F [AZD4320] + C[C@@H](Nc1cc(F)cc(F)c1)c1cc(C(=O)N(C)C)cc2c(=O)cc(N3CCOCC3)oc12 [AZD8186] (first compound max 1 µM, 7x7, partner max 3 µM)",0.987,0.417,0.999,0.837,0.312,0.888,0.521,0.748,0.776,0.996,0.231,0.696,0.703,0.685,0.246,0.849,0.612,0.374,0.482,0.548
"CN(CCO)CC[C@H](CSc1ccccc1)Nc1ccc(S(=O)(=O)NC(=O)c2ccc(N3CCC([C@@H](O)c4ccccc4-c4ccc(Cl)cc4)CC3)cc2)cc1S(=O)(=O)C(F)(F)F [AZD4320] + C=CCn1c(=O)c2cnc(Nc3ccc(N4CCN(C)CC4)cc3)nc2n1-c1cccc(C(C)(C)O)n1 [AZD1775] (first compound max 1 µM, partner max 1 µM)",1,0.689,0.934,0.99,0.34,1,0.618,0.992,0.902,0.994,0.932,0.972,0.658,1,0.241,1,0.632,0.276,0.892,0.807
"COc1nnc2ccc(N3CCC(c4ccc(OCCN5CCN(C)C(=O)[C@H]5C)cc4)CC3)nn12 [AZD5153] + Cn1cnc2c(F)c(Nc3ccc(Br)cc3Cl)c(C(=O)NOCCO)cc21 [Selumetinib] (first compound max 1 µM, 7x7, partner max 10 µM)",0.579,0.337,0.781,0.598,0.35,0.923,0.456,0.894,1,0.79,0.378,0.687,0.582,0.56,0.619,0.658,0.603,0.527,0.476,0.707
"CC1(C)CCC(CN2CCN(c3ccc(C(=O)NS(=O)(=O)c4ccc(NCC5CCOCC5)c([N+](=O)[O-])c4)c(Oc4cnc5[nH]ccc5c4)c3)CC2)=C(c2ccc(Cl)cc2)C1 [Venetoclax] + Cc1cc2ncnn2cc1Nc1ncc2c(n1)n(C1CCOCC1)c(=O)n2C [AZD7648] (first compound max 1 µM, 7x7, partner max 10 µM)",0.465,0.271,0.496,0.172,0.154,0.457,0.224,0.244,0.213,0.447,0.221,0.172,0.325,0.289,0.175,0.104,0.281,0.139,0.352,0.477
"CC(=O)Nc1cccc(-n2c(=O)n(C3CC3)c(=O)c3c(Nc4ccc(I)cc4F)n(C)c(=O)c(C)c32)c1 [Trametinib] + Cc1nc(-c2cn3c(n2)-c2ccc(-c4cnn(C(C)(C)C(N)=O)c4)cc2OCC3)n(C(C)C)n1 [Taselisib] (first compound max 1 µM, 7x7, partner max 10 µM)",0.696,0.65,0.512,0.622,0.824,0.618,0.41,0.928,0.946,0.986,0.243,0.798,0.829,0.121,0.776,0.715,0.558,0.773,0.855,0.703
"Cn1cnc2c(F)c(Nc3ccc(Br)cc3Cl)c(C(=O)NOCCO)cc21 [Selumetinib] + CCN(CCO)CCCOc1ccc2c(Nc3cc(CC(=O)Nc4cccc(F)c4)[nH]n3)ncnc2c1 [AZD2811] (first compound max 10 µM, 7x7, partner max 1 µM)",0.96,0.217,0.443,0.356,0.175,0.965,0.203,0.313,0.983,0.927,0.442,0.321,0.569,0.117,0.406,0.145,0.346,0.224,0.226,0.251
